Measured values published in patent publication US9809865B2, “Anti-microbial agent from Paenibacillus sp. and methods and uses thereof” (Best Environmental Technologies, Inc., priority 2009, dated 2017).

What was measured:
[1] = test system: Fibrobacter succinogenes ATCC 19169; assay: Agar well diffusion method; assay type: cell-based; conditions: medium L-10; polymyxin B at 0.1 μg ml^−1
Description: (§1) The qualitative antimicrobial spectrum of P. polymyxa culture supernatant was determined using the agar well diffusion method (Wolf and Gibbons 1996). […] The seeded agar was then poured into a sterile Petri plate and allowed to solidify at room temperature. Wells (7 mm) were cut in the solidified agar using a sterile metal cork borer and filled with 80 μl of supernatant. The plates were left at 5° C. for 2 h to allow diffusion of the tested aliquot and then incubated aerobically for 18 h at 30° C. Absence or presence of inhibition zones as well as their diameters were recorded.

[2] = test system: Butyrivibrio fibrisolvens LRC OR85; assay: Agar well diffusion method; assay type: cell-based; conditions: medium L-10; polymyxin B at 0.1 μg ml^−1
Description: as §1

E. coli RR1 = assay: Effect of culture supernatant on exponentially growing E. coli RR1 (viable counts, OD600); assay type: cell-based, Escherichia coli; conditions: viability of E. coli RR1 cells; OD600nm constant
Description: To determine the effect of P. polymyxa JB05-01-1 culture supernatant, E. coli RR1 cells were cultivated in the presence of concentrated P. polymyxa culture supernatant containing JB05-01-1 at final total activity of 0, 32, and 96 AU/ml. The OD600nm of culture was determined every two hours using a multi-detection microplate reader (Bio-Teck instrument Inc, Winooski, Vt., USA). The corresponding final cell concentration expressed as CFU/ml was determined as described by Naghmouchi et al. (2008). The inhibitory activity (I.A.) of culture supernatant containing JB05-01-1 was calculated as a percentage, I.A.=100-100[OD600(x)/OD600(i)], where (x) is culture supernatant containing JB05-01-1 at the corresponded total activity and (i) is the control culture. Data was reported as means of duplicate analyses.

Escherichia coli RR1 = assay: Sensitivity to enzymes, detergents or urea, residual activity by agar diffusion test; assay type: physicochemical; conditions: polymyxin B 0.1 μg ml^−1
Description: The sensitivities of the antimicrobial agent to proteases (all from Sigma-Aldrich, Oakville, ON) or other agents was tested by treating P. polymyxa JB05-01-1 culture supernatant with 2 mg ml^−1 final concentration of proteinase K (Tritirachium album), α-chymotrypsin (bovine pancreas), lipase (Sigma-Aldrich, Oakville, ON), trypsin (porcine pancreas), urea (Sigma-Aldrich, St. Louis Mo.), sodium dodecyl sulfate (SDS) (Sigma-Aldrich, St. Louis Mo.) for 1 h at 37° C. (Motta et al. 2007). Thermal stability of the antimicrobial activity was determined by holding aliquots (1000 μl) of 20 h culture supernatant at temperatures ranging from 50° C. to 90° C. for 30 min or at 100° C. for 10 min. The effect of pH was determined by adjusting the pH of P. polymyxa JB05-01-1 culture supernatant from 2 to 9 using 5 M HCl or NaOH. The activity of each sample was compared with the activity of untreated P. polymyxa JB05-01 culture supernatant at pH 6.8.
The effect of several organic solvents was evaluated by stirring 20 h culture supernatant for 2 h with 10% (v/v) acetonitrile, hexane, propanol, ethanol, toluene, acetone, butanol or methanol (all solvents were obtained from Sigma-Aldrich, St. Louis Mo.). Residual antimicrobial activities were tested using the agar diffusion assay against E. coli RR1 as described herein, with controls for effects of residual solvent.

[3] = test system: Paenibacillus polymyxa ATCC 43865; assay: Agar well diffusion method; assay type: cell-based; set-up: key: No inhibition at concentrations up of 0.1 μgml−1.; +: Diameter of the inhibition zone 10 ± 2 mm; ++: Diameter of the inhibition zone 16 ± 2 mm; +++: Diameter of the inhibition zone 28 ± 2 mm; conditions: medium LB; polymyxin B at 0.1 μg ml^−1
Description: as §1

[4] = test system: Bacillus circulans LRC 9E2; assay: Agar well diffusion method; assay type: cell-based; set-up: key: No inhibition at concentrations up of 0.1 μgml−1.; +: Diameter of the inhibition zone 10 ± 2 mm; ++: Diameter of the inhibition zone 16 ± 2 mm; +++: Diameter of the inhibition zone 28 ± 2 mm; conditions: medium LB; polymyxin B at 0.1 μg ml^−1
Description: as §1

[5] = test system: Pediococcus acidilactici ATCC 25740; assay: Agar well diffusion method; assay type: cell-based; set-up: key: No inhibition at concentrations up of 0.1 μgml−1.; +: Diameter of the inhibition zone 10 ± 2 mm; ++: Diameter of the inhibition zone 16 ± 2 mm; +++: Diameter of the inhibition zone 28 ± 2 mm; conditions: medium MRS; polymyxin B at 0.1 μg ml^−1
Description: as §1

[6] = test system: Pediococcus pentosaceus ATCC 25745; assay: Agar well diffusion method; assay type: cell-based; set-up: key: No inhibition at concentrations up of 0.1 μgml−1.; +: Diameter of the inhibition zone 10 ± 2 mm; ++: Diameter of the inhibition zone 16 ± 2 mm; +++: Diameter of the inhibition zone 28 ± 2 mm; conditions: medium LB; polymyxin B at 0.1 μg ml^−1
Description: as §1

[7] = test system: Bacillus lecheniformis LRC 8422; assay: Agar well diffusion method; assay type: cell-based; set-up: key: No inhibition at concentrations up of 0.1 μgml−1.; +: Diameter of the inhibition zone 10 ± 2 mm; ++: Diameter of the inhibition zone 16 ± 2 mm; +++: Diameter of the inhibition zone 28 ± 2 mm; conditions: medium LB; polymyxin B at 0.1 μg ml^−1
Description: as §1

[8] = test system: Lactococcus lactis ATCC 7962; assay: Agar well diffusion method; assay type: cell-based; set-up: key: No inhibition at concentrations up of 0.1 μgml−1.; +: Diameter of the inhibition zone 10 ± 2 mm; ++: Diameter of the inhibition zone 16 ± 2 mm; +++: Diameter of the inhibition zone 28 ± 2 mm; conditions: medium MRS; polymyxin B at 0.1 μg ml^−1
Description: as §1

[9] = test system: Streptococcus bovis ATCC 33317; assay: Agar well diffusion method; assay type: cell-based; set-up: key: No inhibition at concentrations up of 0.1 μgml−1.; +: Diameter of the inhibition zone 10 ± 2 mm; ++: Diameter of the inhibition zone 16 ± 2 mm; +++: Diameter of the inhibition zone 28 ± 2 mm; conditions: medium LB; polymyxin B at 0.1 μg ml^−1
Description: as §1

[10] = test system: Enterococcus mundtii LRC 8369; assay: Agar well diffusion method; assay type: cell-based; set-up: key: No inhibition at concentrations up of 0.1 μgml−1.; +: Diameter of the inhibition zone 10 ± 2 mm; ++: Diameter of the inhibition zone 16 ± 2 mm; +++: Diameter of the inhibition zone 28 ± 2 mm; conditions: medium LB; polymyxin B at 0.1 μg ml^−1
Description: as §1

Listeria innocua HPB 13 = assay: Agar well diffusion method; assay type: cell-based; set-up: key: No inhibition at concentrations up of 0.1 μgml−1.; +: Diameter of the inhibition zone 10 ± 2 mm; ++: Diameter of the inhibition zone 16 ± 2 mm; +++: Diameter of the inhibition zone 28 ± 2 mm; conditions: medium TSB; polymyxin B at 0.1 μg ml^−1
Description: (§2) The qualitative antimicrobial spectrum of P. polymyxa culture supernatant was determined using the agar well diffusion method (Wolf and Gibbons 1996). Briefly, a 25-ml volume of molten tryptic soy agar (0.75% agar w/v) was cooled to 47° C. and seeded with 1% (v/v) overnight TSB culture of an indicator strain. The seeded agar was then poured into a sterile Petri plate and allowed to solidify at room temperature. Wells (7 mm) were cut in the solidified agar using a sterile metal cork borer and filled with 80 μl of supernatant. The plates were left at 5° C. for 2 h to allow diffusion of the tested aliquot and then incubated aerobically for 18 h at 30° C. Absence or presence of inhibition zones as well as their diameters were recorded.

Listeria ivanovii HPB 28 = assay: Agar well diffusion method; assay type: cell-based; set-up: key: No inhibition at concentrations up of 0.1 μgml−1.; +: Diameter of the inhibition zone 10 ± 2 mm; ++: Diameter of the inhibition zone 16 ± 2 mm; +++: Diameter of the inhibition zone 28 ± 2 mm; conditions: medium TSB; polymyxin B at 0.1 μg ml^−1
Description: as §2

[11] = test system: Paenibacillus polymyxa JB05-01-1; assay: Agar well diffusion method; assay type: cell-based; set-up: key: No inhibition at concentrations up of 0.1 μgml−1.; +: Diameter of the inhibition zone 10 ± 2 mm; ++: Diameter of the inhibition zone 16 ± 2 mm; +++: Diameter of the inhibition zone 28 ± 2 mm; conditions: medium LB; polymyxin B at 0.1 μg ml^−1
Description: as §2

[12] = test system: Paenibacillus polymyxa ATCC 7070; assay: Agar well diffusion method; assay type: cell-based; set-up: key: No inhibition at concentrations up of 0.1 μgml−1.; +: Diameter of the inhibition zone 10 ± 2 mm; ++: Diameter of the inhibition zone 16 ± 2 mm; +++: Diameter of the inhibition zone 28 ± 2 mm; conditions: medium LB; polymyxin B at 0.1 μg ml^−1
Description: as §2

Escherichia coli LRC TB1 = assay: Agar well diffusion method; assay type: cell-based; conditions: medium TSB; polymyxin B at 0.1 μg ml^−1
Description: as §2

[13] = test system: Pantoea agglomerans LRC BC1; assay: Agar well diffusion method; assay type: cell-based; conditions: medium TSB; polymyxin B at 0.1 μg ml^−1
Description: as §2

[14] = test system: Escherichia coli LRC SA1650; assay: Agar well diffusion method; assay type: cell-based; conditions: medium TSB; polymyxin B at 0.1 μg ml^−1
Description: as §2

Escherichia coli LRC RR1 = assay: Agar well diffusion method; assay type: cell-based; conditions: medium TSB; polymyxin B at 0.1 μg ml^−1
Description: as §2

[15] = test system: Pseudomonas fluorescens LRC R73; assay: Agar well diffusion method; assay type: cell-based; conditions: medium TSB; polymyxin B at 0.1 μg ml^−1
Description: as §2

Q: For Polymyxin B, which “Inhibition (inhibition zone)” value [1] is on record?
A: + (Diameter of the inhibition zone 10 ± 2 mm)

Q: What about the “Inhibition (inhibition zone)” value [2] of the same substance?
A: + (Diameter of the inhibition zone 10 ± 2 mm)

Q: And the Mode of action (E. coli RR1)?
A: bactericidal action

Q: What about the “% of residual activity” value (Escherichia coli RR1; Chymotrypsin 2 mg ml^−1, 1 h at 37° C.) of the same substance?
A: 79.5%

Q: And the “% of residual activity” value (Escherichia coli RR1; Lipase 2 mg ml^−1, 1 h at 37° C.)?
A: 58.3%

Q: What about the “% of residual activity” value (Escherichia coli RR1; Proteinase K 2 mg ml^−1, 1 h at 37° C.) of the same substance?
A: 4.5%

Q: And the “% of residual activity” value (Escherichia coli RR1; SDS 2 mg ml^−1, 1 h at 37° C.)?
A: 70.1%

Q: And the “% of residual activity” value (Escherichia coli RR1; Trypsin 2 mg ml^−1, 1 h at 37° C.)?
A: 62.5%

Q: And the “% of residual activity” value (Escherichia coli RR1; Urea 2 mg ml^−1, 1 h at 37° C.)?
A: 62.5%

Q: And the “Inhibition (inhibition zone)” value [3]?
A: −

Q: And the “Inhibition (inhibition zone)” value [4]?
A: −

Q: What about the “Inhibition (inhibition zone)” value [5] of the same substance?
A: −

Q: And the “Inhibition (inhibition zone)” value [6]?
A: −

Q: What about the “Inhibition (inhibition zone)” value [7] of the same substance?
A: −

Q: And the “Inhibition (inhibition zone)” value [8]?
A: −

Q: What about the “Inhibition (inhibition zone)” value [9] of the same substance?
A: −

Q: And the “Inhibition (inhibition zone)” value [10]?
A: −

Q: And the “Inhibition (inhibition zone)” value (Listeria innocua HPB 13)?
A: −

Q: What about the “Inhibition (inhibition zone)” value (Listeria ivanovii HPB 28) of the same substance?
A: −

Q: What about the “Inhibition (inhibition zone)” value [11] of the same substance?
A: −

Q: And the “Inhibition (inhibition zone)” value [12]?
A: −

Q: What about the “Inhibition (inhibition zone)” value (Escherichia coli LRC TB1) of the same substance?
A: +++ (Diameter of the inhibition zone 28 ± 2 mm)

Q: What about the “Inhibition (inhibition zone)” value [13] of the same substance?
A: + (Diameter of the inhibition zone 10 ± 2 mm)

Q: And the “Inhibition (inhibition zone)” value [14]?
A: ++ (Diameter of the inhibition zone 16 ± 2 mm)

Q: What about the “Inhibition (inhibition zone)” value (Escherichia coli LRC RR1) of the same substance?
A: +++ (Diameter of the inhibition zone 28 ± 2 mm)

Q: And the “Inhibition (inhibition zone)” value [15]?
A: ++ (Diameter of the inhibition zone 16 ± 2 mm)
